# Assays:
# rabbit [1] = settings: Prenatal developmental toxicity study, himalayan, Oral, Gavage/Intubation, dose end: 27 GD
# rat [2] = settings: Prenatal developmental toxicity study, sprague dawley, Oral, Gavage/Intubation, dose end: 15 GD
# rat [3] = settings: Combined chronic toxicity/carcinogenicity, sprague dawley, Oral, Feed, dose end: 106 week
# rat [4] = settings: Prenatal developmental toxicity study, sprague dawley, Oral, Gavage/Intubation, dose end: 15 GD; remark: listed apart in the source
# rat [5] = settings: Multigenerational reproductive toxicity study, wistar, Oral, Feed, dose end: 2 generation
# rat [6] = settings: Prenatal developmental toxicity study, sprague dawley albino, Oral, Gavage/Intubation, dose end: 19 GD
# rat [7] = settings: Multigenerational reproductive toxicity study, wistar, Oral, Gavage/Intubation, dose end: 1 generation
# rat [8] = settings: Peri- and post-natal toxicity study (Segment III), wistar, Oral, Gavage/Intubation, dose end: 21 PND
# mouse [9] = settings: Multigenerational reproductive toxicity study, cd1, Oral, Water, dose end: 1 generation
# rabbit [10] = settings: Prenatal developmental toxicity study, new zealand white, Oral, Gavage/Intubation, dose end: 19 GD
# mouse [11] = settings: Prenatal developmental toxicity study, cd1, Oral, Gavage/Intubation, dose end: 15 GD
# [12] = group: developmental, developmental / developmental malformation / bone / [other] + developmental / developmental malformation / bone / fused + developmental / …
# [13] = group: maternal, reproductive / reproductive performance / postimplantation loss / postimplantation loss + systemic / in life observation / body weight / …
# [14] = group: developmental, developmental / developmental malformation / trunk / ecchymosis
# [15] = group: developmental, developmental / developmental malformation / trunk / ecchymosis + developmental / developmental malformation / bone / incomplete …
# [16] = group: maternal, systemic / in life observation / body weight / body weight gain + systemic / in life observation / food consumption / food consumption
# [17] = group: maternal, systemic / in life observation / body weight / body weight gain + systemic / in life observation / food consumption / food consumption + …
# [18] = group: cholinesterase, cholinesterase / cholinesterase / cholinesterase / erythrocyte cholinesterase (che) + cholinesterase / cholinesterase / cholinesterase / …
# [19] = group: systemic, systemic / in life observation / body weight / body weight + systemic / in life observation / body weight / body weight gain + systemic / in…
# [20] = group: developmental, developmental / developmental malformation / bone / absent + developmental / developmental malformation / bone / supernumerary
# [21] = group: developmental, developmental / developmental malformation / bone / absent + developmental / developmental malformation / bone / supernumerary + systemic / …
# [22] = group: maternal, systemic / in life observation / body weight / body weight gain
# [23] = group: maternal, systemic / in life observation / body weight / body weight gain + systemic / in life observation / clinical signs / salivation + systemic / …
# [24] = group: offspring, systemic / organ weight / liver / absolute + systemic / organ weight / liver / nos + systemic / organ weight / epididymis / absolute + …
# [25] = group: offspring, systemic / organ weight / testes / nos
# [26] = group: parental, systemic / organ weight / testes / absolute
# [27] = group: parental, systemic / organ weight / testes / absolute + systemic / organ weight / liver / nos + systemic / organ weight / testes / nos + systemic / …
# [28] = group: reproductive, reproductive / reproductive performance / fertility / fertility
# [29] = group: developmental, developmental / developmental landmark / anogenital distance (agd) / anogenital distance (agd)
# [30] = group: parental, systemic / in life observation / body weight / body weight gain + systemic / in life observation / food consumption / food consumption
# [31] = group: reproductive, reproductive / offspring survival early / dead fetuses / dead fetuses
# [32] = group: offspring, systemic / in life observation / body weight / offspring (pup) weight gain
# [33] = group: offspring, systemic / in life observation / body weight / offspring (pup) weight
# [34] = group: parental, systemic / organ weight / liver / absolute + systemic / organ weight / liver / relative to body weight + systemic / organ weight / pituitary…
# [35] = group: reproductive, reproductive / reproductive performance / reproductive performance other / NOS + reproductive / reproductive performance / gestational …
# [36] = group: developmental, developmental / developmental malformation / general / local edema + developmental / developmental malformation / great vessels / persistent…
# [37] = group: maternal, reproductive / reproductive performance / preimplantation loss / preimplantation loss + reproductive / reproductive performance / …
# [38] = group: developmental, developmental / developmental malformation / bone / exencephaly + developmental / developmental malformation / bone / fused + developmental…
# [39] = group: maternal, systemic / organ weight / liver / relative to body weight
compound,measurement,setting,value
CCCCCCCCCCCCCC[N+](C)(C)CCC[Si](OC)(OC)OC.[Cl-],LEL,rabbit [1]; [12],180 mg/kg/day
same,LOAEL,rabbit [1]; [12],> 180 mg/kg/day
same,NEL,rabbit [1]; [12],90 mg/kg/day
same,NOAEL,rabbit [1]; [12],≥ 180 mg/kg/day
same,LEL,rabbit [1]; [13],180 mg/kg/day
same,LOAEL,rabbit [1]; [13],> 180 mg/kg/day
same,NEL,rabbit [1]; [13],90 mg/kg/day
same,NOAEL,rabbit [1]; [13],≥ 180 mg/kg/day
CNC(=O)O/N=C/C(C)(C)SC [Aldicarb],LEL,rat [2]; [14],0.25 mg/kg/day
same,LOAEL,rat [2]; [14],0.25 mg/kg/day
same,NEL,rat [2]; [15],0.125 mg/kg/day
same,NOAEL,rat [2]; [15],0.125 mg/kg/day
same,LEL,rat [2]; [16],0.25 mg/kg/day
same,LOAEL,rat [2]; [16],0.25 mg/kg/day
same,NEL,rat [2]; [17],0.125 mg/kg/day
same,NOAEL,rat [2]; [17],0.125 mg/kg/day
same,LEL,rat [3]; [18],0.47 mg/kg/day
same,LOAEL,rat [3]; [18],0.47 mg/kg/day
same,NEL,rat [3]; [18],0.047 mg/kg/day
same,NOAEL,rat [3]; [18],0.047 mg/kg/day
same,LEL,rat [3]; [19],1.44 mg/kg/day
same,LOAEL,rat [3]; [19],> 1.44 mg/kg/day
same,NEL,rat [3]; [19],0.47 mg/kg/day
same,NOAEL,rat [3]; [19],≥ 1.44 mg/kg/day
C=C(C)C1CC=C(C)CC1 (stereo unspecified) [Limonene],LEL,rat [4]; [20],500 mg/kg/day
same,LOAEL,rat [4]; [20],500 mg/kg/day
same,NEL,rat [4]; [21],250 mg/kg/day
same,NOAEL,rat [4]; [21],250 mg/kg/day
same,LEL,rat [4]; [22],500 mg/kg/day
same,LOAEL,rat [4]; [22],500 mg/kg/day
same,NEL,rat [4]; [23],250 mg/kg/day
same,NOAEL,rat [4]; [23],250 mg/kg/day
CC12CC1(C)C(=O)N(c1cc(Cl)cc(Cl)c1)C2=O (stereo unspecified) [Procymidone],LOAEL,rat [5]; [24],> 77.8 mg/kg/day
same,NOAEL,rat [5]; [24],≥ 77.8 mg/kg/day
same,LEL,rat [5]; [25],5.35 mg/kg/day
same,NEL,rat [5]; [25],< 5.35 mg/kg/day
same,LEL,rat [5]; [26],22.7 mg/kg/day
same,LOAEL,rat [5]; [26],22.7 mg/kg/day
same,NEL,rat [5]; [27],4.52 mg/kg/day
same,NOAEL,rat [5]; [27],4.52 mg/kg/day
same,LEL,rat [5]; [28],73.2 mg/kg/day
same,LOAEL,rat [5]; [28],73.2 mg/kg/day
same,NEL,rat [5]; [28],24.1 mg/kg/day
same,NOAEL,rat [5]; [28],24.1 mg/kg/day
same,LEL,rat [6]; [29],12.5 mg/kg/day
same,LOAEL,rat [6]; [29],12.5 mg/kg/day
same,NEL,rat [6]; [29],3.5 mg/kg/day
same,NOAEL,rat [6]; [29],3.5 mg/kg/day
same,LOAEL,rat [6]; [16],125 mg/kg/day
same,LEL,rat [6]; [17],125 mg/kg/day
same,NEL,rat [6]; [17],12.5 mg/kg/day
same,NOAEL,rat [6]; [17],12.5 mg/kg/day
CCOCC(O)COc1ccc(NC(=O)CC[S+](C)C)cc1.Cc1ccc(S(=O)(=O)[O-])cc1 (stereo unspecified) [Suplatast tosylate],LEL,rat [7]; [30],1800 mg/kg/day
same,LOAEL,rat [7]; [30],> 1800 mg/kg/day
same,NEL,rat [7]; [30],600 mg/kg/day
same,NOAEL,rat [7]; [30],≥ 1800 mg/kg/day
same,LEL,rat [7]; [31],1800 mg/kg/day
same,LOAEL,rat [7]; [31],> 1800 mg/kg/day
same,NEL,rat [7]; [31],600 mg/kg/day
same,NOAEL,rat [7]; [31],≥ 1800 mg/kg/day
same,LEL,rat [8]; [32],1800 mg/kg/day
same,LOAEL,rat [8]; [32],> 1800 mg/kg/day
same,NEL,rat [8]; [32],600 mg/kg/day
same,NOAEL,rat [8]; [32],≥ 1800 mg/kg/day
same,LEL,rat [8]; [30],1800 mg/kg/day
same,LOAEL,rat [8]; [30],> 1800 mg/kg/day
same,NEL,rat [8]; [30],600 mg/kg/day
same,NOAEL,rat [8]; [30],≥ 1800 mg/kg/day
COCCOCCOCCOC [Triethylene glycol dimethyl ether],LEL,mouse [9]; [33],87.5 mg/kg/day
same,LOAEL,mouse [9]; [33],> 175 mg/kg/day
same,NEL,mouse [9]; [33],43.8 mg/kg/day
same,NOAEL,mouse [9]; [33],≥ 175 mg/kg/day
same,LEL,mouse [9]; [34],175 mg/kg/day
same,LOAEL,mouse [9]; [34],> 175 mg/kg/day
same,NEL,mouse [9]; [34],87.5 mg/kg/day
same,NOAEL,mouse [9]; [34],≥ 175 mg/kg/day
same,LEL,"mouse [9]; group: reproductive, reproductive / reproductive performance / gestational length / gestational length",87.5 mg/kg/day
same,LOAEL,mouse [9]; [35],> 175 mg/kg/day
same,NEL,mouse [9]; [35],43.8 mg/kg/day
same,NOAEL,mouse [9]; [35],≥ 175 mg/kg/day
same,LOAEL,rabbit [10]; [36],> 250 mg/kg/day
same,NEL,rabbit [10]; [36],75 mg/kg/day
same,NOAEL,rabbit [10]; [36],≥ 250 mg/kg/day
same,LEL,"rabbit [10]; group: developmental, developmental / developmental malformation / spleen / small",125 mg/kg/day
same,LOAEL,rabbit [10]; [37],> 250 mg/kg/day
same,NEL,rabbit [10]; [37],125 mg/kg/day
same,NOAEL,rabbit [10]; [37],≥ 250 mg/kg/day
same,LEL,rabbit [10]; [22],175 mg/kg/day
same,LOAEL,mouse [11]; [38],> 1000 mg/kg/day
same,NEL,mouse [11]; [38],250 mg/kg/day
same,NOAEL,mouse [11]; [38],≥ 1000 mg/kg/day
same,LEL,"mouse [11]; group: developmental, systemic / in life observation / body weight / fetal weight",500 mg/kg/day
same,LEL,mouse [11]; [39],500 mg/kg/day
same,LOAEL,mouse [11]; [39],> 1000 mg/kg/day
same,NEL,mouse [11]; [39],250 mg/kg/day
same,NOAEL,mouse [11]; [39],≥ 1000 mg/kg/day

# Source: EPA's ToxRefDB 2
